{"source": "patent US6632793B1", "about": "“Immunological activity for a peptide of the limulus anti-LPS factor” (Centro de Ingenieria Genetica y Biotecnologia, priority 1997, dated 2003)", "key": {"[1]": {"test_system": "TNF-α in peritoneal macrophages", "assay": "TNF-α production in LPS-activated peritoneal macrophages pre-incubated with peptide", "assay_type": "cell-based, Balb/c mice", "conditions": "5 μM pre-incubation 18 h, then LPS 1 μg/ml; 1-24 h; FIG. 6", "method": "(§1) Peritoneal elicited cells were obtained from Balb/c mice (CENPALAB, Havana, Cuba). Primary mouse macrophages was collected from the peritoneal cavity 4 days after intraperitoneal injection with 1 ml of 4% Brewer's thioglicollate broth. Cell were maintained in RPMI 1640 supplemented with 10% heat-inactivated fetal bovine serum, 2 mM L-glutamine, 200 units/ml penicillin, and 200 μg/ml streptomycin at 37° C. in 5% CO2/[…].\nTNF-α assay: Cells were plated in 96-well plates at 2×10^6 cells/ml in 200 μl of medium and incubated at 37° C. for 2 h. Non-adherent cells were removed by repeated washing with PBS. Macrophages were pre-incubated with 5 μM of LALF peptide during 18 h, afterward were washed with RPMI medium in order to eliminate the peptide. Then macrophages were treated with LPS of E. coli 0111:B4, Sigma (1 μg/ml). TNF-α was determined in supematants from cultured cells at the time 1 h, 2 h, 4 h, 6 h and 24 h used a kit of ELISA kindly provided by [Dr. W. Buurman Univ. Hosp. Maastrich, Netherlands].\nFIG. 6: Regulatory effect of LALF derived-peptide on TNF-α production in stimulated peritoneal macrophages. The macrophages were pretreated with 5 μM of LALF peptide during 18 hours and then the cells were activated with 1 μg of E. coli LPS. TNF-α was measured in the cells cultured supernatants at different time."}, "[2]": {"test_system": "cytokine mRNA in human PBMCs", "assay": "Cytokine gene expression in human PBMCs by Ribonuclease Protection Assay (hck-1 probe set)", "assay_type": "cell-based", "conditions": "5 μM for 18 hours; FIG. 8", "method": "The Ribonuclease Protection Assay (RPA) is a highly sensitive and specific method for the detection, quantification and characterization of RNA molecules (Gilman^32, M. In Current Protocols in Molecular Biology. J. Wiley and Sons, New York, p. 4.7.1-7.7.8. 1988 and Dent^33, A. L., Shaffer, A. L., Yu […]., 1997. Cytokine expression and germinal center formation by Bcl-2. […] Samples of total RNA from stimulated and nonstimulated human PBMCs were analyzed for distinct mRNA species by PharMingen's RiboQuantTM. Multi-Probe Ribonuclease Protection Assay System with the hck-1 probe template set (Cat. No. 45031P) which including mRNA species analyses for a different cytokine eg. (IL-5, IL-4, IL-10, IL-15, IL-9, IL-2, IL-13, IFN-γ). […] The identity and quantity of each mRNA species in the original RNA sample can then be determined based on the signal intensities given by the appropriately sized of protected probe fragment bands. Unprotected probe set and a probe for housekeeping gene transcripts are incorporating in order to identify and quantify the RNA molecules in the original samples. […] FIG 8: Samples of total RNA from stimulated human PBMCs with 5 μM of peptide for 18 hours were analyzed for distinct mRNA species by using […] […]"}, "[3]": {"test_system": "NO production in peritoneal macrophages", "assay": "NO2- secretion (Greiss) in LPS-activated peritoneal macrophages pre-incubated with peptide", "assay_type": "cell-based, Balb/c mice", "conditions": "5 μM pre-incubation 18 h, then LPS 1 μg/ml 72 h; FIG. 7", "method": "as §1\nAssay for Secretion of NO2-(Jin, F^29, Nathan, C, Radzioch, 0, and Ding, A. Cell, 1997, 88: 417-426). Cells were plated in 96-well plates at 2×10^6 cells /ml in 200 μl of medium and incubated at 37° C. for 2 h, then non-adherent cells were removed by repeated washing with PBS. […] Cell viability was assessed by mitochondrial-dependent reduction of MTT to formazan (Szabo^30, c, Mitchell, J A, Gross, S S, Thiemermann, C, and Vane, JR. J. Pharm. Exp. Therap., 1992, 265: 674-80). […] Absorbance at 540 nm was recorded in a microplate reader (SUMA) with sodium nitrite as standards (Green^28, L C, Wagner, D A, Glogowski, J, et al. Anal Biochem 1982; 126: 131-8). […]\nFIG. 7: Regulatory effect of LALF derived-peptide on NO production in stimulated peritoneal macrophages. […] Levels of NO were measured in the cells cultured supernatants using the Greiss method."}, "[4]": {"assay": "In vivo toxicity after intravenous injection in mice (behavior, survival)", "set-up": "species or system mice BalB/c", "method": "This approach was developed in mice BalB/c between 6-8 old. The mice were injected intravenously with 50 μg of peptide in 0.1 ml [2.5 mg/kg of body weight] or saline solution as a control. The behavior of animals was observed each 4 hours during 24 h. Survival was followed for one week. Blood was collected for TNF-α quantification from the retroorbital sinus at the time 0 h. 6 h, 24 h and 48 h in the control group and peptide treated-mice. The concentration of TNF-α in mouse serum was determined using a specific ELISA kindly provided by Dr. W. Buurman (University Hospital Maastrich, The Netherlands)."}, "[5]": {"assay": "Cell viability of peritoneal macrophages (MTT reduction)", "assay_type": "cell-based, Balb/c mice", "conditions": "Balb/c, mouse, primary thioglycollate-elicited peritoneal macrophages, 5 μM pre-incubation 18 h, then LPS, read-out: Viability of the cells", "method": "as §1\nAssay for Secretion of NO2-(Jin, F^29, Nathan, C, Radzioch, 0, and Ding, A. Cell, 1997, 88: 417-426). Cells were plated in 96-well plates at 2×10^6 cells /ml in 200 μl of medium and incubated at 37° C. for 2 h, then non-adherent cells were removed by repeated washing with PBS. Macrophage were pre-incubated with 5 μM of LALF peptide during 18 h, afterward were washed with RPMI medium in order to eliminated the peptide. Then the macrophages were treated 72 hr with LPS of E. coli 0111:B4, Sigma (1 μg/ml). Cell viability was assessed by mitochondrial-dependent reduction of MTT to formazan (Szabo^30, c, Mitchell, J A, Gross, S S, Thiemermann, C, and Vane, JR. J. Pharm. Exp. Therap., 1992, 265: 674-80). […] Absorbance at 540 nm was recorded in a microplate reader (SUMA) with sodium nitrite as standards (Green^28, L C, Wagner, D A, Glogowski, J, et al. Anal Biochem 1982; 126: 131-8). […]"}, "[6]": {"test_system": "TNF-α in mouse serum", "assay": "Serum TNF after P. aeruginosa challenge in peptide-treated mice (ELISA)", "assay_type": "in vivo, mice BalB/c", "conditions": "14 μg i.p. 20 h before P. aeruginosa; 0-240 min; FIG. 4", "description": "Groups of mice received LALF peptide (14 μg/0.1 ml) or saline control (0.1 ml) intraperitoneally 20 hours prior to infectious challenge. […] Blood was collected for TNF quantification from the retroorbital sinus at the time 0, 20, 40, 60, 90, 120, 180, 240 min in the control group and peptide treated-mice. The concentration of TNF-α in mouse serum was determined using a specific ELISA kindly provided by.\nEight-week-old mice were injected i.p. with 14 μg of peptide in 0.1 ml saline or saline alone. Twenty hours after the mice were injected i.p. with a lethal doses of P. aeruginosa. At 0, 20, 40, 60, 90, 120, 180 and 240 min following the challenge, the mice were bled from the retroorbital sinus and the serum concentration of TNF was measured."}}, "note": "Where a SMILES comes first, the peptide text is derived from it."}
{"smiles": "CC[C@H](C)[C@H](NC(=O)[C@H](CCCNC(=N)N)NC(=O)[C@H](Cc1ccc(O)cc1)NC(=O)[C@H](Cc1c[nH]cn1)NC(=O)[C@@H](N)CS)C(=O)N[C@@H](CCCCN)C(=O)N1CCC[C@H]1C(=O)N[C@H](C(=O)N[C@@H](Cc1ccccc1)C(=O)N[C@@H](CCCNC(=N)N)C(=O)N[C@@H](CCCNC(=N)N)C(=O)N[C@@H](CC(C)C)C(=O)N[C@@H](CCCCN)C(=O)N[C@@H](Cc1c[nH]c2ccccc12)C(=O)N[C@@H](CCCCN)C(=O)N[C@@H](Cc1ccc(O)cc1)C(=O)N[C@@H](CCCCN)C(=O)NCC(=O)N[C@@H](CCCCN)C(=O)N[C@@H](Cc1ccccc1)C(=O)N[C@@H](Cc1c[nH]c2ccccc12)C(=O)N[C@@H](CS)C(=O)O)[C@@H](C)O", "note": "[LALF] (H-CHYRIKPTFRRLKWKYKGKFWC-OH)", "values": [{"measurement": "TNF levels in LPS-activated macrophages (in words)", "setting": "[1]", "value": "down regulated"}, {"measurement": "Cytokine gene expression in human PBMCs (in words)", "setting": "[2]", "value": "able to preferentially induce IFN-γ, IL-2 and IL-13 gene expression"}, {"measurement": "NO production in LPS-activated macrophages (in words)", "setting": "[3]", "value": "up regulated"}, {"measurement": "Toxicity in vivo (in words)", "setting": "[4]; 50 μg [2.5 mg/kg] intravenously", "value": "not toxic in vivo"}, {"measurement": "Survival after intravenous injection (in words)", "setting": "[4]; 50 μg in 0.1 ml [2.5 mg/kg] intravenously, followed one week", "value": "All mice [10 animals/group] survivor beyond of one week"}, {"measurement": "viability at 18 h, 5 µM", "setting": "[5]", "value": "≥ 98", "unit": "%"}, {"measurement": "Effect on systemic TNF after bacterial challenge (in words)", "setting": "[6]", "value": "induced a decrease of the proinflammatory cytokine TNF"}]}
